Converted amounts (≈) assume the structure as drawn. Counter-ions that a name gives are not always drawn. Like-named read-outs stand apart in the source and are kept apart here.
Tests used:
Test in all cases: MIC, microbroth dilution, standard strains
Format in all cases: cell-based
[1] = system: Acinetobacter baumannii ATCC 19606
Protocol: (§1) The minimum inhibitory concentration (MIC) of the pleuromutilin derivative containing thiazole-pyridine benzyl quaternary ammonium salt side chain was tested with moxifloxacin as a positive control (purchased from Shanghai Macklin Biochemical Technology Co., Ltd.) using a microbroth dilution method.
(§2) Standard strains include gram-positive bacteria: Staphylococcus epidermidis ATCC 12228, Staphylococcus aureus ATCC 29213, ATCC 25923 and methicillin-resistant Staphylococcus aureus ATCC 33591; gram-negative bacteria: Salmonella ATCC 14028, Acinetobacter baumannii ATCC 19606, Escherichia coli ATCC 25922 and CMCC 44103, all the strains were purchased from the American Type Culture Collection.

[2] = system: Escherichia coli ATCC 25922
Protocol: as §1, §2

[3] = system: Escherichia coli CMCC 44103
Protocol: as §1, §2

[4] = system: Salmonella ATCC 14028
Protocol: as §1, §2

[5] = system: Staphylococcus aureus ATCC 25923
Protocol: as §1, §2

[6] = system: Staphylococcus aureus ATCC 29213
Protocol: as §1, §2

[7] = system: Staphylococcus epidermidis ATCC 12228
Protocol: as §1, §2

[8] = system: methicillin-resistant Staphylococcus aureus ATCC 33591
Protocol: as §1, §2

[9] = ATCC19606, read-out: Minimum inhibitory concentration
[10] = ATCC25922, read-out: Minimum inhibitory concentration
[11] = CMCC44103, read-out: Minimum inhibitory concentration
[12] = ATCC14028, read-out: Minimum inhibitory concentration
[13] = ATCC25923, read-out: Minimum inhibitory concentration
[14] = ATCC29213, read-out: Minimum inhibitory concentration
[15] = ATCC12228, read-out: Minimum inhibitory concentration
[16] = ATCC33591, read-out: Minimum inhibitory concentration
[17] = ATCC19606, ATCC 19606, read-out: Minimum inhibitory concentration
[18] = ATCC25922, ATCC 25922, read-out: Minimum inhibitory concentration
[19] = CMCC44103, CMCC 44103, read-out: Minimum inhibitory concentration
[20] = ATCC14028, ATCC 14028, read-out: Minimum inhibitory concentration
[21] = ATCC25923, ATCC 25923, read-out: Minimum inhibitory concentration
[22] = ATCC29213, ATCC 29213, read-out: Minimum inhibitory concentration
[23] = ATCC12228, ATCC 12228, read-out: Minimum inhibitory concentration
[24] = ATCC33591, ATCC 33591, read-out: Minimum inhibitory concentration

Row | SMILES | MIC [1, 17] [µg/mL] | MIC [2, 18] [µg/mL] | MIC [3, 19] [µg/mL] | MIC [4, 20] [µg/mL] | MIC [5, 21] [µg/mL] | MIC [6, 22] [µg/mL] | MIC [7, 23] [µg/mL] | MIC [8, 24] [µg/mL] | MIC [1, 9] [µg/mL] | MIC [2, 10] [µg/mL] | MIC [3, 11] [µg/mL] | MIC [4, 12] [µg/mL] | MIC [5, 13] [µg/mL] | MIC [6, 14] [µg/mL] | MIC [7, 15] [µg/mL] | MIC [8, 16] [µg/mL]
1 | C=C[C@]1(C)C[C@@H](OC(=O)CSc2nc(-c3cc[n+](Cc4ccc(C#N)cc4)cc3)cs2)[C@]2(C)[C@H](C)CC[C@]3(CCC(=O)[C@H]32)[C@@H](C)[C@@H]1O [Compound 8, 1-(4-(cyano)benzyl)-4-(2-(8-hydroxy-4,7,9,12-tetramethyl-3-oxo-7-vinyldecahydro-4,9a-propancyclopent[8]cyclen-5-yl)oxy)-2-oxoethyl)thiazol-4-yl)pyridyl bromide salt] | – | – | – | – | – | – | – | – | 32 | 2 | 8 | 32 | 1 | 0.125 | 8 | 64
2 | C=C[C@]1(C)C[C@@H](OC(=O)CSc2nc(-c3cc[n+](Cc4ccc(OC(F)(F)F)cc4)cc3)cs2)[C@]2(C)[C@H](C)CC[C@]3(CCC(=O)[C@H]32)[C@@H](C)[C@@H]1O [Compound 5, 1-(4-(trifluoromethoxy)benzyl)-4-(2-(8-hydroxy-4,7,9,12-tetramethyl-3-oxo-7-vinyldecahydro-4,9a-propancyclopent[8]cyclen-5-yl)oxy)-2-oxoethyl)thiazol-4-yl)pyridyl bromide salt] | 8 | 2 | 32 | 4 | 32 | 2 | 2 | 2 | – | – | – | – | – | – | – | –
3 | C=C[C@]1(C)C[C@@H](OC(=O)CSC(C)(C)CNC(=O)[C@H](N)C(C)C)[C@]2(C)[C@H](C)CC[C@]3(CCC(=O)[C@H]32)[C@@H](C)[C@@H]1O [Valnemulin, valnemulin, reference compound] | – | – | – | – | – | – | – | – | 2 (≈ 3.54 µM) | 16 (≈ 28.3 µM) | 64 (≈ 113 µM) | 64 (≈ 113 µM) | 4 (≈ 7.08 µM) | 2 (≈ 3.54 µM) | 64 (≈ 113 µM) | > 128
4 | C=C[C@]1(C)C[C@@H](OC(=O)CSc2nc(-c3cc[n+](Cc4ccc(-c5ccccc5)cc4)cc3)cs2)[C@]2(C)[C@H](C)CC[C@]3(CCC(=O)[C@H]32)[C@@H](C)[C@@H]1O [Compound 12, 1-([1,1′-biphenyl]-4-ylmethyl)-4-(2-(8-hydroxy-4,7,9,12-tetramethyl-3-oxo-7-vinyldecahydro-4,9a-propancyclopent[8]cyclen-5-yl)oxy)-2-oxoethyl)thiazol-4-yl)pyridyl bromide salt] | 2 | 1 | 1 | 2 | 1 | 0.5 | 2 | 2 | – | – | – | – | – | – | – | –
5 | C=C[C@]1(C)C[C@@H](OC(=O)CSc2nc(-c3cc[n+](Cc4ccc(F)cc4)cc3)cs2)[C@]2(C)[C@H](C)CC[C@]3(CCC(=O)[C@H]32)[C@@H](C)[C@@H]1O [Compound 9, 1-(4-fluorobenzyl)-4-(2-(8-hydroxy-4,7,9,12-tetramethyl-3-oxo-7-vinyldecahydro-4,9a-propancyclopent[8]cyclen-5-yl)oxy)-2-oxoethyl)thiazol-4-yl)pyridyl bromide salt] | 16 | 2 | 1 | 1 | 1 | 1 | 2 | 2 | – | – | – | – | – | – | – | –
6 | C=C[C@]1(C)C[C@@H](OC(=O)CSc2nc(-c3cc[n+](Cc4ccccc4)cc3)cs2)[C@]2(C)[C@H](C)CC[C@]3(CCC(=O)[C@H]32)[C@@H](C)[C@@H]1O [Compound 1, 1-Benzyl-4-(2-(((8-hydroxy-4,7,9,12-tetramethyl-3-oxy-7-vinyldecahydro-4,9a-propanecyclopenta[8]cyclen-5-yl)oxy)-2-oxoethyl)thiothiazol-4-yl)pyridyl bromide salt] | – | – | – | – | – | – | – | – | 4 | – | 0.25 | – | 0.5 | 0.125 | 2 | 1
7 | C=C[C@]1(C)C[C@@H](OC(=O)CSc2nc(-c3cc[n+](Cc4ccc(Br)cc4)cc3)cs2)[C@]2(C)[C@H](C)CC[C@]3(CCC(=O)[C@H]32)[C@@H](C)[C@@H]1O [Compound 11, 1-(4-bromobenzyl)-4-(2-(8-hydroxy-4,7,9,12-tetramethyl-3-oxo-7-vinyldecahydro-4,9a-propancyclopent[8]cyclen-5-yl)oxy)-2-oxoethyl)thiazol-4-yl)pyridyl bromide salt] | 2 | 2 | 0.5 | 4 | 1 | 0.5 | 2 | 2 | – | – | – | – | – | – | – | –
8 | C=C[C@]1(C)C[C@@H](OC(=O)CSc2nc(-c3cc[n+](Cc4ccc(Cl)cc4)cc3)cs2)[C@]2(C)[C@H](C)CC[C@]3(CCC(=O)[C@H]32)[C@@H](C)[C@@H]1O [Compound 10, 1-(4-chlorobenzyl)-4-(2-(8-hydroxy-4,7,9,12-tetramethyl-3-oxo-7-vinyldecahydro-4,9a-propancyclopent[8]cyclen-5-yl)oxy)-2-oxoethyl)thiazol-4-yl)pyridyl bromide salt] | 2 | 0.5 | 1 | 2 | 2 | 0.125 | 2 | 2 | – | – | – | – | – | – | – | –

More lines, in order of falling MIC [1, 17], values ahead:

Row | MIC [1, 17] [µg/mL] | MIC [2, 18] [µg/mL] | MIC [3, 19] [µg/mL] | MIC [4, 20] [µg/mL] | MIC [5, 21] [µg/mL] | MIC [6, 22] [µg/mL] | MIC [7, 23] [µg/mL] | MIC [8, 24] [µg/mL] | SMILES | MIC [1, 9] [µg/mL] | MIC [2, 10] [µg/mL] | MIC [3, 11] [µg/mL] | MIC [4, 12] [µg/mL] | MIC [5, 13] [µg/mL] | MIC [6, 14] [µg/mL] | MIC [7, 15] [µg/mL] | MIC [8, 16] [µg/mL]
9 | 8 | 16 | 32 | 16 | 128 | 64 | 32 | 64 | C=C[C@]1(C)C[C@@H](OC(=O)CSc2nc(-c3cc[n+](Cc4cc(F)cc(F)c4)cc3)cs2)[C@]2(C)[C@H](C)CC[C@]3(CCC(=O)[C@H]32)[C@@H](C)[C@@H]1O [Compound 15, 1-(3,5-difluorobenzyl)-4-(2-(8-hydroxy-4,7,9,12-tetramethyl-3-oxo-7-vinyldecahydro-4,9a-propancyclopent[8]cyclen-5-yl)oxy)-2-oxoethyl)thiazol-4-yl)pyridyl bromide salt] | – | – | – | – | – | – | – | –
10 | 8 | 32 | 32 | 16 | 64 | 128 | 128 | 64 | C=C[C@]1(C)C[C@@H](OC(=O)CSc2nc(-c3cc[n+](Cc4cc(C)cc(C)c4)cc3)cs2)[C@]2(C)[C@H](C)CC[C@]3(CCC(=O)[C@H]32)[C@@H](C)[C@@H]1O [Compound 13, 1-(3,5-dimethylbenzyl)-4-(2-(8-hydroxy-4,7,9,12-tetramethyl-3-oxo-7-vinyldecahydro-4,9a-propancyclopent[8]cyclen-5-yl)oxy)-2-oxoethyl)thiazol-4-yl)pyridyl bromide salt] | – | – | – | – | – | – | – | –
11 | 8 | 32 | 8 | 16 | 64 | 128 | 64 | 64 | C=C[C@]1(C)C[C@@H](OC(=O)CSc2nc(-c3cc[n+](Cc4cc(OC)cc(OC)c4)cc3)cs2)[C@]2(C)[C@H](C)CC[C@]3(CCC(=O)[C@H]32)[C@@H](C)[C@@H]1O [Compound 14, 1-(3,5-dimethoxybenzyl)-4-(2-(8-hydroxy-4,7,9,12-tetramethyl-3-oxo-7-vinyldecahydro-4,9a-propancyclopent[8]cyclen-5-yl)oxy)-2-oxoethyl)thiazol-4-yl)pyridyl bromide salt] | – | – | – | – | – | – | – | –
12 | 2 | 1 | 2 | 2 | 1 | 0.25 | 1 | 2 | C=C[C@]1(C)C[C@@H](OC(=O)CSc2nc(-c3cc[n+](Cc4ccc(C(F)(F)F)cc4)cc3)cs2)[C@]2(C)[C@H](C)CC[C@]3(CCC(=O)[C@H]32)[C@@H](C)[C@@H]1O [Compound 3, 1-(4-(trifluoromethyl)benzyl)-4-(2-(8-hydroxy-4,7,9,12-tetramethyl-3-oxo-7-vinyldecahydro-4,9a-propancyclopent[8]cyclen-5-yl)oxy)-2-oxoethyl)thiazol-4-yl)pyridyl bromide salt] | – | – | – | – | – | – | – | –
13 | 2 | 2 | 2 | 2 | 0.5 | 0.25 | 2 | 1 | C=C[C@]1(C)C[C@@H](OC(=O)CSc2nc(-c3cc[n+](Cc4ccc(C(C)(C)C)cc4)cc3)cs2)[C@]2(C)[C@H](C)CC[C@]3(CCC(=O)[C@H]32)[C@@H](C)[C@@H]1O [Compound 6, 1-(4-(tert-butyl)benzyl)-4-(2-(8-hydroxy-4,7,9,12-tetramethyl-3-oxo-7-vinyldecahydro-4,9a-propancyclopent[8]cyclen-5-yl)oxy)-2-oxoethyl)thiazol-4-yl)pyridyl bromide salt] | – | – | – | – | – | – | – | –
